Active and inactive are the calls of the source. No cut-off for these calls is given here.

In assay [1] the test system is Rattus norvegicus. Briefly: LDH release in Langendorff perfused Wistar rat heart subjected to ischemia-reperfusion cycles at 40 mg/kg, ip after 120 mins in presence of 5-hydroxydecanoic acid. It is filed as functional. Conditions: route intraperitoneal.
Assay [2] concerns Aorta. Briefly: Vasorelaxation activity on KCl-induced contractile tone in Wistar rat thoracic aortic ring at 100 uM. Format: functional.
The subject of assay [3] is Rattus norvegicus. Briefly: Activity in Langendorff perfused Wistar rat heart subjected to ischemia-reperfusion cycles at 40 mg/kg, ip after 120 mins. It is filed as functional. The note with it: route intraperitoneal.
The subject of assay [4] is Rattus norvegicus. Briefly: Ischemia-injured area relative to total area in Langendorff perfused Wistar rat heart subjected to ischemia-reperfusion cycles at 40 mg/kg, ip. The note with it: route intraperitoneal. It is filed as functional.
In assay [5] the test system is Aorta. Briefly: Vasorelaxation activity on KCl-induced contractile tone in Wistar rat thoracic aortic ring. Format: functional, tissue-based.
Assay [6] relates to Rattus norvegicus. Briefly: Activity in Langendorff perfused Wistar rat heart subjected to ischemia-reperfusion cycles at 40 mg/kg, ip after 120 mins in presence of 5-hydroxydecanoic acid. Format: functional. Conditions: route intraperitoneal.
In assay [7] the test system is Rattus norvegicus. Briefly: Activity in Langendorff perfused Wistar rat heart subjected to ischemia-reperfusion cycles at 40 mg/kg, ip after 30 mins in presence of 5-hydroxydecanoic acid. Format: functional. Conditions: route intraperitoneal.
The subject of assay [8] is Rattus norvegicus. Briefly: LDH release in Langendorff perfused Wistar rat heart subjected to ischemia-reperfusion cycles at 40 mg/kg, ip after 120 mins. Conditions: route intraperitoneal. Format: functional.
Assay [9] relates to Rattus norvegicus. Briefly: Ischemia-injured area relative to total area in Langendorff perfused Wistar rat heart subjected to ischemia-reperfusion cycles at 40 mg/kg, ip in presence of 5-hydroxydecanoic acid. Format: functional. The note with it: route intraperitoneal.
Assay [10] deals with Rattus norvegicus. Briefly: Activity in Langendorff perfused Wistar rat heart subjected to ischemia-reperfusion cycles at 40 mg/kg, ip after 30 mins. Conditions: route intraperitoneal. Format: functional.
The subject of assay [11] is Rattus norvegicus. Briefly: Ischemia-injured area relative to total area in Langendorff perfused Wistar rat heart subjected to ischemia-reperfusion cycles at 1 mg/kg, ip in presence of 5-hydroxydecanoic acid. The note with it: route intraperitoneal. Format: functional.
Assay [12] has as its system Rattus norvegicus. Briefly: Activity in Langendorff perfused Wistar rat heart subjected to ischemia-reperfusion cycles at 1 mg/kg, ip after 120 mins. It is filed as functional. The note with it: route intraperitoneal.
Assay [13] deals with Rattus norvegicus. Briefly: Decrease in systolic blood pressure in Wistar rat at 1 mg/kg, ip after 60 mins. Format: functional, organism-based. Also on record: dose 1 mg/kg. The note with it: Artery.
Assay [14] deals with Rattus norvegicus. Briefly: Activity in Langendorff perfused Wistar rat heart subjected to ischemia-reperfusion cycles at 1 mg/kg, ip after 30 mins. It is filed as functional. The note with it: route intraperitoneal.
Assay [15] deals with Rattus norvegicus. Briefly: Activity in Langendorff perfused Wistar rat heart subjected to ischemia-reperfusion cycles at 1 mg/kg, ip after 120 mins in presence of 5-hydroxydecanoic acid. It is filed as functional. The note with it: route intraperitoneal.
Assay [16] relates to Rattus norvegicus. Briefly: Ischemia-injured area relative to total area in Langendorff perfused Wistar rat heart subjected to ischemia-reperfusion cycles at 1 mg/kg, ip. It is filed as functional. The note with it: route intraperitoneal.
For assay [17], the system named is Rattus norvegicus. Briefly: LDH release in Langendorff perfused Wistar rat heart subjected to ischemia-reperfusion cycles at 1 mg/kg, ip after 120 mins. Format: functional. Conditions: route intraperitoneal.
Assay [18] concerns Rattus norvegicus. Briefly: LDH release in Langendorff perfused Wistar rat heart subjected to ischemia-reperfusion cycles at 1 mg/kg, ip after 120 mins in presence of 5-hydroxydecanoic acid. It is filed as functional. Conditions: route intraperitoneal.
For assay [19], the system named is Rattus norvegicus. Briefly: Activity in Langendorff perfused Wistar rat heart subjected to ischemia-reperfusion cycles at 1 mg/kg, ip after 30 mins in presence of 5-hydroxydecanoic acid. Format: functional. Conditions: route intraperitoneal.

On to `CC1(C)CC2(CN(Cc3ccc(NS(C)(=O)=O)cc3)C(=O)CO2)c2cc(Br)ccc2O1` (racemic), for which the Activity amounted to 11.7 U/g in the assay on Rattus norvegicus [1]; 57% in the assay with Rattus norvegicus [3]; 13% with Rattus norvegicus [4]; 39% in the assay on Rattus norvegicus [6]; 52% in the assay on Rattus norvegicus [7]; 47% in the assay on Rattus norvegicus [9]. The Activity in the assay with Rattus norvegicus [10] amounted to 75%. The same compound returned an Emax at 100 µM in the assay on Aorta [2] of 87%. In the assay on Aorta [5], this compound had a 50% inhibitory concentration (IC50) of 7.24 µM. For the same compound, the LDH release with Rattus norvegicus [8] is 3 U/g.
Take `CC(=O)Nc1ccc(CN2CC3(CC(C)(C)Oc4ccccc43)OCC2=O)cc1` (racemic): the Activity in the assay on Rattus norvegicus [1] worked out at 13.5 U/g; in the assay on Rattus norvegicus [3], 62%; in the assay with Rattus norvegicus [4], 20%; in the assay with Rattus norvegicus [6] it was 27%; in the assay on Rattus norvegicus [7], 16%; in the assay with Rattus norvegicus [9], 49%. Besides, the Activity in the assay with Rattus norvegicus [10] is reported as 79%. This compound registered a maximal effect (Emax) at 100 µM in the assay with Aorta [2] of 57%. The compound also had an IC50 with Aorta [5] of 25.1 µM. In the assay with Rattus norvegicus [8], this compound registered an LDH release of 6 U/g.
Take `CC1(C)Oc2ccc(C#N)cc2C(N2CCCC2=O)C1O` (racemic) [CROMAKALIM]: the Activity in the assay on Rattus norvegicus [11] is on record as 38%; in the assay on Rattus norvegicus [12] it was 84%; in the assay with Rattus norvegicus [14], 99%; in the assay on Rattus norvegicus [15], 18%; in the assay on Rattus norvegicus [16], 25%; with Rattus norvegicus [17], 5.5%. Besides, the Activity is reported as 8.6% in the assay on Rattus norvegicus [18] and 11% in the assay on Rattus norvegicus [19]. Further, in the assay with Rattus norvegicus [13], the outcome was Active. Also, in the assay on Aorta [2], the Emax at 100 µM came to 98%. This compound also gave an IC50 with Aorta [5] of 0.0977 µM.
As to `CC1(C)CC2(CN(Cc3ccc(NS(C)(=O)=O)cc3)CCO2)c2cc(Br)ccc2O1` (racemic), the Activity was 13.4 U/g in the assay on Rattus norvegicus [1]; 77% in the assay on Rattus norvegicus [3]; 14% with Rattus norvegicus [4]; 33% with Rattus norvegicus [6]; 17% with Rattus norvegicus [7]; 40% in the assay with Rattus norvegicus [9]. This compound registered an Activity with Rattus norvegicus [10] of 89%. In the assay on Aorta [2], this compound registered an Emax at 100 µM of 98%. The compound also showed an LDH release with Rattus norvegicus [8] of 6.9 U/g.
For `CC(=O)Nc1ccc(CN2CCOC3(C2)CC(C)(C)Oc2ccccc23)cc1` (racemic), in the assay with Aorta [2], the Emax at 100 µM is 77%. Besides, the Activity is 17% in the assay with Rattus norvegicus [3], 50% in the assay on Rattus norvegicus [4] and 12% in the assay with Rattus norvegicus [10]. Moreover, half-maximal inhibition in the assay with Aorta [5] (IC50) was put at 13.2 µM. The compound further showed an LDH release with Rattus norvegicus [8] of 16 U/g.
In the assay on Aorta [2], `CC(=O)Nc1ccc(CN2CC3(CC(C)(C)Oc4ccc(Br)cc43)OCC2=O)cc1` (racemic) yielded an Emax at 100 µM of 70%. Also, the Activity in the assay on Rattus norvegicus [3] was 3%; in the assay on Rattus norvegicus [4], 58%; with Rattus norvegicus [10], 2%. In addition, in the assay with Aorta [5], the IC50 is 15.1 µM. In the assay on Rattus norvegicus [8], the LDH release came out at 12.4 U/g.
On to `CC(=O)Nc1ccc(CN2CCOC3(C2)CC(C)(C)Oc2ccc(Br)cc23)cc1` (racemic), for which the maximum response (Emax) at 100 µM in the assay on Aorta [2] was 99%. In addition, the Activity in the assay on Rattus norvegicus [3] is on record as 26%; in the assay on Rattus norvegicus [4], 61%; in the assay on Rattus norvegicus [10] it was 15%. This compound showed an IC50 with Aorta [5] of 2.4 µM. The LDH release in the assay with Rattus norvegicus [8] turned out to be 11.3 U/g.
In the case of `CC1=Nc2ccc(Cl)cc2S(=O)(=O)N1` [DIAZOXIDE], the Activity in the assay with Rattus norvegicus [1] was found to be 14.5%; in the assay on Rattus norvegicus [3], 47%; with Rattus norvegicus [4] it was 22%; in the assay with Rattus norvegicus [6], 6%; in the assay on Rattus norvegicus [7], 13%; in the assay on Rattus norvegicus [9], 52%. Further, the Activity in the assay with Rattus norvegicus [10] is 80%. This compound gave an Emax at 100 µM with Aorta [2] of 97%. Also, the concentration for half-maximal inhibition (IC50) with Aorta [5] was 19.1 µM. This compound registered an LDH release in the assay on Rattus norvegicus [8] of 5.7 U/g.

(Values after ChEMBL document CHEMBL1138211, “New benzopyran-based openers of the mitochondrial ATP-sensitive potassium channel with potent anti-ischemic properties” (J Med Chem, 2006).)
